Measurements as given in ChEMBL document CHEMBL5241092, “The antibacterial activity of fluoroquinolone derivatives: An update (2018-2021)” (2021).
Values after ≈ are worked out from the molar mass of the structure shown.

Legend:
Staphylococcus aureus [1] = assay: Antibacterial activity against methicillin resistant Staphylococcus aureus 3; assay type: functional
Staphylococcus aureus [2] = assay: Antibacterial activity against methicillin resistant Staphylococcus aureus 2; assay type: functional
Staphylococcus aureus [3] = assay: Antibacterial activity against methicillin resistant Staphylococcus aureus 1; assay type: functional
Staphylococcus aureus [4] = assay: Antibacterial activity against Staphylococcus aureus; assay type: functional
Acinetobacter baumannii = assay: Antibacterial activity against quinolone resistant Acinetobacter baumannii; assay type: functional
Pseudomonas aeruginosa [5] = assay: Antibacterial activity against quinolone susceptible Pseudomonas aeruginosa; assay type: functional
Clostridioides difficile = assay: Antibacterial activity against Clostridioides difficile; assay type: functional
Escherichia coli [6] = assay: Antibacterial activity against quinolone resistant Escherichia coli; assay type: functional
Pseudomonas aeruginosa [7] = assay: Antibacterial activity against Pseudomonas aeruginosa; assay type: functional
Bacillus subtilis = assay: Antibacterial activity against Bacillus subtilis; assay type: functional
Klebsiella pneumoniae = assay: Antibacterial activity against Klebsiella pneumoniae; assay type: functional
[8] = test system: Staphylococcus epidermidis; assay: Antibacterial activity against Staphylococcus epidermidis; assay type: functional
Serratia marcescens = assay: Antibacterial activity against Serratia marcescens; assay type: functional
Escherichia coli [9] = assay: Antibacterial activity against Escherichia coli; assay type: functional
Vibrio cholerae = assay: Antibacterial activity against Vibrio cholerae; assay type: functional
Shigella flexneri = assay: Antibacterial activity against Shigella flexneri; assay type: functional
Citrobacter freundii = assay: Antibacterial activity against Citrobacter freundii; assay type: functional
[10] = Antibacterial activity against Salmonella typhi; assay type: functional, Salmonella enterica subsp. enterica serovar Typhimurium; details: Salmonella enterica
[11] = test system: Yersinia pseudotuberculosis; assay: Antibacterial activity against Yersinia pseudotuberculosis; assay type: functional
Bacillus cereus = assay: Antibacterial activity against Bacillus cereus; assay type: functional
Enterococcus faecalis = assay: Antibacterial activity against Enterococcus faecalis; assay type: functional
Salmonella enteritidis = assay: Antibacterial activity against Salmonella enteritidis; assay type: functional, Salmonella enterica subsp. enterica serovar Enteritidis; details: Salmonella enterica
Staphylococcus aureus [12] = assay: Antibacterial activity against methicillin resistant Staphylococcus aureus; assay type: functional
Staphylococcus aureus [13] = assay: Antibacterial activity against fluoroquinolone sensitive Staphylococcus aureus; assay type: functional
Staphylococcus aureus [14] = assay: Antibacterial activity against fluoroquinolone/methicillin resistant Staphylococcus aureus; assay type: functional
Staphylococcus aureus [15] = assay: Potency index, ratio of levofloxacin MIC to test compound MIC for antibacterial activity against fluoroquinolone/methicillin resistant Staphylococcus aureus; assay type: functional
Escherichia coli [16] = assay: Antibacterial activity against ciprofloxacin resistant Escherichia coli; assay type: functional
Staphylococcus aureus [17] = assay: Antibacterial activity against ciprofloxacin resistant Staphylococcus aureus; assay type: functional
Staphylococcus aureus [18] = assay: Potency index, ratio of vancomycin MIC to test compound MIC for antibacterial activity against methicillin resistant Staphylococcus aureus 3; assay type: functional
Staphylococcus aureus [19] = assay: Potency index, ratio of vancomycin MIC to test compound MIC for antibacterial activity against methicillin resistant Staphylococcus aureus 2; assay type: functional
Staphylococcus aureus [20] = assay: Potency index, ratio of vancomycin MIC to test compound MIC for antibacterial activity against methicillin resistant Staphylococcus aureus 1; assay type: functional
Escherichia coli [21] = assay: Antibacterial activity against quinolone susceptible Escherichia coli; assay type: functional

Compound `CCn1cc(C(=O)O)c(=O)c2cc(F)c(N3CCN(Cc4nnc(-c5ccccc5Cl)o4)CC3)cc21` has an MIC (Staphylococcus aureus [1]) of 0.25 µg/mL (≈ 0.488 µM), an MIC (Staphylococcus aureus [2]) of 0.25 µg/mL (≈ 0.488 µM) and an MIC (Staphylococcus aureus [3]) of 0.25 µg/mL (≈ 0.488 µM). It also gave an MIC (Staphylococcus aureus [4]) of 0.25 µg/mL (≈ 0.488 µM).
`C[C@H]1COc2c(N3CCN(C)CC3)c(F)cc3c(=O)c(C(=O)O)cn1c23.C[C@H]1COc2c(N3CCN(C)CC3)c(F)cc3c(=O)c(C(=O)O)cn1c23.O` [LEVOFLOXACIN] gave an MIC (Acinetobacter baumannii) of 4 µg/mL, an MIC (Pseudomonas aeruginosa [5]) of 0.015 µg/mL and an MIC50 (Clostridioides difficile) of 128 µg/mL. The MIC90 (Clostridioides difficile) was greater than 128 µg/mL and the MIC (Escherichia coli [6]) was 4 µg/mL.
In the case of `COc1c(N2CCN(C(=O)Cn3cc(CN4C(=O)C(=O)c5cc(F)ccc54)nn3)C(C)C2)c(F)cc2c(=O)c(C(=O)O)cn(C3CC3)c12` (configuration not stated), the MIC (Staphylococcus aureus [1]) is reported as no more than 0.03 µg/mL, the MIC (Staphylococcus aureus [2]) is reported as no more than 0.03 µg/mL and the MIC (Staphylococcus aureus [3]) is reported as no more than 0.03 µg/mL. The MIC (Staphylococcus aureus [4]) was no more than 0.03 µg/mL.
For `O=C(CN1CCN(c2cc3c(cc2F)c(=O)c(C(=O)O)cn3-c2ccc(F)cc2)CC1)c1ccc(Cl)cc1`, the MIC (Pseudomonas aeruginosa [7]) was 0.5 µg/mL (≈ 0.929 µM), the MIC (Bacillus subtilis) was 0.5 µg/mL (≈ 0.929 µM) and the MIC (Klebsiella pneumoniae) was 0.5 µg/mL (≈ 0.929 µM). For the same compound, the MIC [8] was 0.5 µg/mL (≈ 0.929 µM), the MIC (Staphylococcus aureus [4]) was 0.5 µg/mL (≈ 0.929 µM) and the MIC (Serratia marcescens) was 0.5 µg/mL (≈ 0.929 µM). It also gave an MIC (Escherichia coli [9]) of 0.5 µg/mL (≈ 0.929 µM).
`O=C(O)c1cn(C2CC2)c2cc(N3CCN(CN4c5ccccc5C(=O)N(c5ccc(Br)cc5)C4c4ccccc4)CC3)c(F)cc2c1=O` (configuration not stated) showed an MIC (Pseudomonas aeruginosa [7]) of 0.1 µg/mL (≈ 0.138 µM), an MIC (Klebsiella pneumoniae) of 0.1 µg/mL (≈ 0.138 µM) and an MIC (Vibrio cholerae) of 0.1 µg/mL (≈ 0.138 µM). It also gave an MIC [8] of 0.1 µg/mL (≈ 0.138 µM), an MIC (Staphylococcus aureus [4]) of 0.1 µg/mL (≈ 0.138 µM) and an MIC (Shigella flexneri) of 0.1 µg/mL (≈ 0.138 µM). For the same compound, the MIC (Citrobacter freundii) was 0.1 µg/mL (≈ 0.138 µM) and the MIC [10] was 0.1 µg/mL (≈ 0.138 µM).
Work on `CCn1cc(C(=O)O)c(=O)c2cc(F)c(N3CCN(Cc4nnc(-c5ccc(OC)cc5)o4)CC3)cc21` yielded an MIC (Staphylococcus aureus [1]) of 0.25 µg/mL (≈ 0.493 µM), an MIC (Staphylococcus aureus [2]) of 0.25 µg/mL (≈ 0.493 µM) and an MIC (Staphylococcus aureus [3]) of 0.25 µg/mL (≈ 0.493 µM). It also gave an MIC (Staphylococcus aureus [4]) of 0.25 µg/mL (≈ 0.493 µM).
With `CCn1cc(C(=O)O)c(=O)c2cc(F)c(N3CCNCC3)cc21` [NORFLOXACIN] the MIC (Pseudomonas aeruginosa [7]) was less than 0.24 µg/mL, the MIC [11] was less than 0.24 µg/mL and the MIC (Staphylococcus aureus [4]) was less than 0.24 µg/mL. The MIC (Bacillus cereus) was less than 0.24 µg/mL, the MIC (Escherichia coli [9]) was less than 0.24 µg/mL and the MIC (Enterococcus faecalis) was less than 0.24 µg/mL. For the same compound, the MIC (Salmonella enteritidis) was 0.0625 µg/mL (≈ 0.196 µM) and the MIC [10] was 2.4 µg/mL (≈ 7.52 µM).
With `O=C(O)c1cn(C2CC2)c2cc(N3CCN(CN4c5ccccc5C(=O)N(c5ccc(Cl)cc5)C4c4ccccc4)CC3)c(F)cc2c1=O` (configuration not stated) the MIC (Pseudomonas aeruginosa [7]) was 0.1 µg/mL (≈ 0.147 µM), the MIC (Klebsiella pneumoniae) was 0.1 µg/mL (≈ 0.147 µM) and the MIC (Vibrio cholerae) was 0.1 µg/mL (≈ 0.147 µM). The MIC [8] was 0.1 µg/mL (≈ 0.147 µM), the MIC (Staphylococcus aureus [4]) was 0.1 µg/mL (≈ 0.147 µM) and the MIC (Shigella flexneri) was 0.1 µg/mL (≈ 0.147 µM). It also gave an MIC (Citrobacter freundii) of 0.1 µg/mL (≈ 0.147 µM) and an MIC [10] of 0.1 µg/mL (≈ 0.147 µM).
`O=C(O)c1cn(C2CC2)c2cc(N3CCN(Cc4nc5cc(Cl)ccc5c(=O)[nH]4)CC3)c(F)cc2c1=O` showed an MIC (Staphylococcus aureus [12]) of 0.016 µg/mL (≈ 0.0305 µM) and an MIC (Staphylococcus aureus [4]) of 0.016 µg/mL (≈ 0.0305 µM).
With `CC(Cl)C(=O)OC1CC2CCC(C1)N2c1c(F)cc2c(=O)c(C(=O)O)cn3c2c1OC[C@@H]3C` (some centres not stated) the MIC (Staphylococcus aureus [13]) was no more than 0.5 µg/mL, the MIC (Staphylococcus aureus [14]) was no more than 0.5 µg/mL and the Ratio (Staphylococcus aureus [15]) was 4.
In the case of `CN[C@H](CC(C)C)C(=O)N[C@H]1C(=O)N[C@@H](CC(N)=O)C(=O)N[C@H]2C(=O)N[C@H]3C(=O)N[C@H](C(=O)N[C@H](C(=O)O)c4cc(O)cc(O)c4-c4cc3ccc4O)[C@H](O)c3ccc(c(Cl)c3)Oc3cc2cc(c3O[C@@H]2O[C@H](CO)[C@@H](O)[C@H](O)[C@H]2O[C@H]2C[C@](C)(N)[C@H](O)[C@H](C)O2)Oc2ccc(cc2Cl)[C@H]1O` [VANCOMYCIN], the MIC50 (Clostridioides difficile) is reported as 2 µg/mL (≈ 1.38 µM) and the MIC90 (Clostridioides difficile) is reported as 4 µg/mL (≈ 2.76 µM).
For `O=C(O)c1cn(-c2ccc(F)cc2)c2cc(N3CCN(Cc4nc5ccc(Cl)cc5c(=O)[nH]4)CC3)c(F)cc2c1=O`, the MIC (Staphylococcus aureus [12]) was 0.125 µg/mL (≈ 0.216 µM) and the MIC (Staphylococcus aureus [4]) was 0.125 µg/mL (≈ 0.216 µM).
`Cc1nc(Cl)nc(N2CCN(c3cc4c(cc3F)c(=O)c(C(=O)O)cn4C3CC3)CC2)c1N` showed an MIC (Escherichia coli [16]) of 7.4 µg/mL (≈ 15.6 µM) and an MIC (Staphylococcus aureus [17]) of 7.4 µg/mL (≈ 15.6 µM).
With `CCn1cc(C(=O)O)c(=O)c2cc(F)c(N3CCN(C(=O)CN4C(=O)S/C(=C\c5ccc(Cl)cc5Cl)C4=O)CC3)cc21` the MIC (Pseudomonas aeruginosa [7]) was 0.25 µg/mL (≈ 0.395 µM), the MIC (Escherichia coli [9]) was 0.25 µg/mL (≈ 0.395 µM) and the MIC (Salmonella enteritidis) was 0.25 µg/mL (≈ 0.395 µM).
For `CCn1cc(C(=O)O)c(=O)c2cc(F)c(N3CCN(Cc4nnc(-c5cccc(OC)c5)o4)CC3)cc21`, the Ratio (Staphylococcus aureus [18]) was 2, the MIC (Staphylococcus aureus [1]) was 1 µg/mL (≈ 1.97 µM) and the MIC (Staphylococcus aureus [2]) was 0.5 µg/mL (≈ 0.985 µM). The MIC (Staphylococcus aureus [3]) was 0.5 µg/mL (≈ 0.985 µM), the MIC (Staphylococcus aureus [4]) was 2 µg/mL (≈ 3.94 µM) and the Ratio (Staphylococcus aureus [19]) was 2. It also gave a Ratio (Staphylococcus aureus [20]) of 2.
`Cc1c(-c2cnc(N)c(C#N)c2)c(F)cc2c(=O)c(C(=O)O)cn(C3CC3)c12` showed an MIC50 (Clostridioides difficile) of 0.125 µg/mL (≈ 0.33 µM) and an MIC90 (Clostridioides difficile) of 0.5 µg/mL (≈ 1.32 µM).
`O=C(O)c1cn(-c2ccc(F)cc2)c2cc(N3CCN(Cc4nc5ccccc5c(=O)[nH]4)CC3)c(F)cc2c1=O` gave an MIC (Staphylococcus aureus [12]) of 0.125 µg/mL (≈ 0.23 µM) and an MIC (Staphylococcus aureus [4]) of 0.125 µg/mL (≈ 0.23 µM).
`O=C(O)c1cn(-c2ccc(F)cc2)c2cc(N3CCN(Cc4nc5cc(Cl)ccc5c(=O)[nH]4)CC3)c(F)cc2c1=O` gave an MIC (Staphylococcus aureus [12]) of 0.125 µg/mL (≈ 0.216 µM) and an MIC (Staphylococcus aureus [4]) of 0.125 µg/mL (≈ 0.216 µM).
`CNC1CN(c2c(F)cc3c(=O)c(C(=O)O)cn(-c4cc(N)c(F)cc4CO)c3c2Cl)C1` showed an MIC (Pseudomonas aeruginosa [5]) of 0.008 µg/mL (≈ 0.0172 µM) and an MIC (Escherichia coli [21]) of 0.008 µg/mL (≈ 0.0172 µM).
